# Experimental data: article PMC10857906, “PROTAC-mediated NR4A1 degradation as a novel strategy for cancer immunotherapy” (The Journal of Experimental Medicine, 2024)
# Columns and labels:
# Yummer1.7 melanoma = Yummer1.7 melanoma syngeneic tumor model; format: in vivo, mouse
# Source text: 7–9-wk-old C57BL/6J, B6.129S2-Ighm^tm1Cgn/J (002288), B6.129S2-Nr4a1^tm1Jmi/J (NR4A1^−/−, 006187), and NOD-SCID interleukin-2 receptor gamma null (NSG) mice were purchased from Jackson Laboratories. For all studies involving NR-V04 and celastrol, the compounds were formulated in 50% phosal PG, 45% miglyol 810N, and 5% polysorbate 80 and administered via i.p. injection.
# For syngeneic tumor models, 5 × 10^5 cells MC38, Yumm1.7, and Yummer1.7, 1 × 10^5 cells of B16F10 were resuspended in PBS and implanted into 7–9-wk-old mice subcutaneously. For the tumor inhibition experiment, mice were treated with 1.8 mg/kg NR-V04 or 0.75 mg/kg celastrol by i.p. injection twice weekly. For the immune profile experiment, once tumors reached 0.5 cm in diameter, mice were treated with 1.8 mg/kg NR-V04 by i.p. injection twice weekly. […] Blood samples were taken from the submandibular (facial) vein before each treatment and 42 days later for hematological analysis, and body weight was measured twice per week up to day 42. […]
# We administered 100 μg of anti-mouse CD8α antibody (Clone: 53-6.7; Bio X Cell) or rat IgG2a isotype control to each mouse every 4 days via i.p. injection. […] Toward the end of the experiment, we collected blood samples from mice in both treatment and control groups and assessed the efficiency of CD8^+ T cell depletion using flow cytometry analysis.
# OT-1 CD8^+ Texh cells = test: T cell exhaustion in vitro, mouse OT-1 CD8^+ T cells; format: cell-based; details: 500 nM, 48 h
# Protocol: We conducted experiments involving the isolations and treatments of CD8^+ T cells from both OT-1 mice (C57BL/6-Tg(TcraTcrb)1100Mjb/J; Jackson Laboratories) and T cells from human PBMCs. CD8^+ T cells were isolated from OT-1 mice using the EasySep Mouse CD8 T Cell Isolation Kit, followed by daily treatment with 10 ng/ml ovalbumin (257–264) (S7951-1MG; Sigma-Aldrich) for specified durations. After 3 days of ovalbumin treatment, OT-1 CD8^+ T cells were activated, and after 7 days of treatment, they reached a state of exhaustion. Human T cells were isolated from PBMCs using the EasySep Human CD3 Positive Selection Kit II (17851; STEMCELL) and cultured with Dynabeads (Cell/Dynabeads: 1:1, A56992; Thermo Fisher Scientific) for 3 days to induce activation and for 7 days to induce exhaustion. Both mouse and human T cells received a treatment of 500 nM NR-V04 2 days prior to harvesting. To characterize the T cell subtypes, we employed specific flow cytometry antibodies and conducted flow cytometry analysis.
# Mouse tumors were excised and ∼200 mg of tumor tissue was enzymatically and mechanically digested using the mouse Tumor Dissociation Kit (Miltenyi Biotec) to obtain a single-cell suspension. […] Flow cytometry was performed on a three laser Cytek Aurora Cytometer (Cytek Biosciences) and analyzed using FlowJo software (BD Biosciences). […]
structure (smiles),measurement,setting,value
CC1=C(O)C(=O)C=C2C1=CC=C1[C@@]2(C)CC[C@@]2(C)[C@@H]3C[C@](C)(C(=O)NCCOCCOCCOCCOCC(=O)N[C@H](C(=O)N4C[C@H](O)C[C@H]4C(=O)N[C@@H](C)c4ccc(-c5scnc5C)cc4)C(C)(C)C)CC[C@]3(C)CC[C@]12C [NR-V04],tumor response with CD8^+ T cell depletion,"Yummer1.7 melanoma; Yummer1.7, anti-CD8 antibody 100 µg/mouse, NR-V04 from day 7",desensitized tumors to NR-V04 treatment
same,tumor growth,"Yummer1.7 melanoma; Yummer1.7 in WT mice, 1.8 mg/kg i.p. twice a week from day 7",effectively inhibited tumor growth
same,CD8^+ Texh cells (PD1^+Tim3^+),OT-1 CD8^+ Texh cells,significant reduction in CD8^+ Texh cells
